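96-well plates; 48 h exposure; 5 concentrations. Endpoints by linear interpolation between flanking doses. Not reached: highest tested concentration assigned. GI50 is the concentration that inhibits growth by half.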 The source made the active and inactive calls. No stated cut-off is given here; in the data, active = GI50 up to about 1.1 µM and inactive = higher.
Columns and labels:
Test in all cases: NCI tumour cell line growth inhibition, 48 h
NCI-H226 = system: NCI-H226
UACC-257 = system: UACC-257
786-0 = system: 786-0
NCI/ADR-RES = system: NCI/ADR-RES
OVCAR-8 = system: OVCAR-8
SR = system: SR
ACHN = system: ACHN
KM12 = system: KM12
HCT-15 = system: HCT-15
CCRF-CEM = system: CCRF-CEM
HL-60 = system: HL-60
CAKI-1 = system: CAKI-1
HCT-116 = system: HCT-116
T47D = system: T47D
HOP-62 = system: HOP-62
BT-549 = system: BT-549
NCI-H460 = system: NCI-H460
PC-3 = system: PC-3
TK-10 = system: TK-10
HT-29 = system: HT-29
IGROV-1 = system: IGROV-1
HCC 2998 = system: HCC 2998
OVCAR-3 = system: OVCAR-3
SK-MEL-28 = system: SK-MEL-28
SK-OV-3 = system: SK-OV-3
SF-539 = system: SF-539
MDA-MB-231 = system: MDA-MB-231
SN12C = system: SN12C
EKVX = system: EKVX
SK-MEL-5 = system: SK-MEL-5
MDA-N = system: MDA-N
K562 = system: K562
MDA-MB-435 = system: MDA-MB-435
NCI-H522 = system: NCI-H522
A498 = system: A498
SNB-75 = system: SNB-75
Malme-3M = system: Malme-3M
SF-268 = system: SF-268
U-251 = system: U-251
LOX IMVI = system: LOX IMVI
SF-295 = system: SF-295
A549 = system: A549
COLO 205 = system: COLO 205
OVCAR-4 = system: OVCAR-4
MOLT-4 = system: MOLT-4
RPMI-8226 = system: RPMI-8226
UO-31 = system: UO-31
DU-145 = system: DU-145
RXF 393 = system: RXF 393
UACC-62 = system: UACC-62
SNB-19 = system: SNB-19
OVCAR-5 = system: OVCAR-5
Hs-578T = system: Hs-578T
NCI-H23 = system: NCI-H23
M14 = system: M14
SW-620 = system: SW-620
MCF7 = system: MCF7
SK-MEL-2 = system: SK-MEL-2

Compound: O=C(CCc1ccccc1)n1cccc1CO
- GI50 (NCI-H226): > 100 µM (inactive)
- GI50 (UACC-257): > 100 µM (inactive)
- GI50 (786-0): > 100 µM (inactive)
- GI50 (NCI/ADR-RES): > 100 µM (inactive)
- GI50 (OVCAR-8): > 100 µM (inactive)
- GI50 (SR): > 100 µM (inactive)
- GI50 (ACHN): > 100 µM (inactive)
- GI50 (KM12): > 100 µM (inactive)
- GI50 (HCT-15): > 100 µM
- GI50 (CCRF-CEM): > 100 µM (inactive)
- GI50 (HL-60): > 100 µM (inactive)
- GI50 (CAKI-1): > 100 µM (inactive)
- GI50 (HCT-116): > 100 µM (inactive)
- GI50 (T47D): 96.4 µM (inactive)
- GI50 (HOP-62): > 100 µM (inactive)
- GI50 (BT-549): > 100 µM (inactive)
- GI50 (NCI-H460): > 100 µM (inactive)
- GI50 (PC-3): > 100 µM (inactive)
- GI50 (TK-10): > 100 µM (inactive)
- GI50 (HT-29): > 100 µM (inactive)
- GI50 (IGROV-1): > 100 µM (inactive)
- GI50 (HCC 2998): > 100 µM (inactive)
- GI50 (OVCAR-3): > 100 µM (inactive)
- GI50 (SK-MEL-28): > 100 µM (inactive)
- GI50 (SK-OV-3): > 100 µM (inactive)
- GI50 (SF-539): > 100 µM (inactive)
- GI50 (MDA-MB-231): > 100 µM (inactive)
- GI50 (SN12C): > 100 µM (inactive)
- GI50 (EKVX): > 100 µM (inactive)
- GI50 (SK-MEL-5): > 100 µM (inactive)
- GI50 (MDA-N): > 100 µM (inactive)
- GI50 (K562): > 100 µM (inactive)
- GI50 (MDA-MB-435): > 100 µM (inactive)
- GI50 (NCI-H522): > 100 µM (inactive)
- GI50 (A498): > 100 µM (inactive)
- GI50 (SNB-75): > 100 µM (inactive)
- GI50 (Malme-3M): > 100 µM (inactive)
- GI50 (SF-268): > 100 µM (inactive)
- GI50 (U-251): > 100 µM (inactive)
- GI50 (LOX IMVI): > 100 µM (inactive)
- GI50 (SF-295): > 100 µM (inactive)
- GI50 (A549): > 100 µM (inactive)
- GI50 (COLO 205): > 100 µM (inactive)
- GI50 (OVCAR-4): > 100 µM (inactive)
- GI50 (MOLT-4): > 100 µM (inactive)
- GI50 (RPMI-8226): > 100 µM (inactive)
- GI50 (UO-31): > 100 µM (inactive)
- GI50 (DU-145): > 100 µM (inactive)
- GI50 (RXF 393): 93.3 µM (inactive)
- GI50 (UACC-62): > 100 µM (inactive)
- GI50 (SNB-19): > 100 µM (inactive)
- GI50 (OVCAR-5): > 100 µM (inactive)
- GI50 (Hs-578T): 60.3 µM (inactive)
- GI50 (NCI-H23): > 100 µM (inactive)
- GI50 (M14): > 100 µM (inactive)
- GI50 (SW-620): > 100 µM (inactive)
- GI50 (MCF7): > 100 µM (inactive)
- GI50 (SK-MEL-2): > 100 µM (inactive)

Reference: ChEMBL document CHEMBL1201862, “PubChem BioAssay data set” (2004)
